This passage reports IC50 results from patent publication US9012443B2 (Amgen Inc., priority 2011, dated 2015).

Molecules are shown by their SMILES. Counter-ions that a name gives are not always drawn.

Chain of Nav 1.7 (Q15858 whole entry): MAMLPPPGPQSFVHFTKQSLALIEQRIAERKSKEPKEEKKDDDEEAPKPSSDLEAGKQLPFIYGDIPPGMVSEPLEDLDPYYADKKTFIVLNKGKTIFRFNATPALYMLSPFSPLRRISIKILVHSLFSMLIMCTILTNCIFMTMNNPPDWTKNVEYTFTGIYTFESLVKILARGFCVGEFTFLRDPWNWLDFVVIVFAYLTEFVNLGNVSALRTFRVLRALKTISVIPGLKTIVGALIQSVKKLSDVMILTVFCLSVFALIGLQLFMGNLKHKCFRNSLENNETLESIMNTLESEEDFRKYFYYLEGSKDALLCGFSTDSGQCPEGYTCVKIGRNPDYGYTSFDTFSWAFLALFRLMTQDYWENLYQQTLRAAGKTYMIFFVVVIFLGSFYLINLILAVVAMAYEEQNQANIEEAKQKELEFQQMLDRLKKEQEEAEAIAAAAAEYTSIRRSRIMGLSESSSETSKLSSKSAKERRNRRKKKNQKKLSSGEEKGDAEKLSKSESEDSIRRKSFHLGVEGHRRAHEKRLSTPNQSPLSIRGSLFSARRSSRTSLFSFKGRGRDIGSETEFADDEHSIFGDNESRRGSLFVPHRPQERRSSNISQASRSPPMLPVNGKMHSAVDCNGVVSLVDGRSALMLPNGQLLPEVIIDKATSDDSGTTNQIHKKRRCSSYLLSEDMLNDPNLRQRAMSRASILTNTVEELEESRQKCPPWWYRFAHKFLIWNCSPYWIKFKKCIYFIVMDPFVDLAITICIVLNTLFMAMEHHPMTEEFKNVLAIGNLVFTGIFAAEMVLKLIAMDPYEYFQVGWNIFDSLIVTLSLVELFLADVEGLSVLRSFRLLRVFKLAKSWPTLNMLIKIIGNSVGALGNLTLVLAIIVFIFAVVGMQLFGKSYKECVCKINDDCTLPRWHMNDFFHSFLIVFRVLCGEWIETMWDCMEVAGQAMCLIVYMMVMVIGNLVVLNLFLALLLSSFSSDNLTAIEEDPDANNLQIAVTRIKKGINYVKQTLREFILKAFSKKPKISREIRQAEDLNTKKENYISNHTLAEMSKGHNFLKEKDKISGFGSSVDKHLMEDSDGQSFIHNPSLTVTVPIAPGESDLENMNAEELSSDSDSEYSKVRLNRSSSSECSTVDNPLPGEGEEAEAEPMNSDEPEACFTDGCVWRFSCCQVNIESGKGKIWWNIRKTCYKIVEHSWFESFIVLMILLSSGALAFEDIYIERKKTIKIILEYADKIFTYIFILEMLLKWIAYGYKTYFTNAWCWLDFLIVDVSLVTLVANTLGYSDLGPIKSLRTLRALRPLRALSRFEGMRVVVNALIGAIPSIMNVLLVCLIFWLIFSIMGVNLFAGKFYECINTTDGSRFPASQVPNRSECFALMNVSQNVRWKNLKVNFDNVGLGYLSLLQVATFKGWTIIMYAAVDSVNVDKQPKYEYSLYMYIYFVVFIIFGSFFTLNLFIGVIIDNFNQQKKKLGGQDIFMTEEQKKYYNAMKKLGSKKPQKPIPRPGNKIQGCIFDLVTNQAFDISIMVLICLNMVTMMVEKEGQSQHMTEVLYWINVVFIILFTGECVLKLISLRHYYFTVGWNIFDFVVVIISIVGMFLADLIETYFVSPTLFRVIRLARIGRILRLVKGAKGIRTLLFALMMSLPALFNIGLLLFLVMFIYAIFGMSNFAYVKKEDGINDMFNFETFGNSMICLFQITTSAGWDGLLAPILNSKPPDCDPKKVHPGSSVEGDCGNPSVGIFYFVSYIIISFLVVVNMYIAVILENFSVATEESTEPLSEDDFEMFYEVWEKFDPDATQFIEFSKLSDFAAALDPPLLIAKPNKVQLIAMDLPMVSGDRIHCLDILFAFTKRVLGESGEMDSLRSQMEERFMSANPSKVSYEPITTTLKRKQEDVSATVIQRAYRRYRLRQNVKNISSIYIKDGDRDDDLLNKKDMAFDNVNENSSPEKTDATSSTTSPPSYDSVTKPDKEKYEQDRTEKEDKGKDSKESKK

The experiment has as its target Nav 1.7 (Homo sapiens (Human), UniProt Q15858). Put plainly: Nav 1.7 in vitro PX assay (PatchXpress whole cell voltage clamp). The conditions noted are these: 293 cells, human Nav1.7, partially inactivated state; read-out: Nav1.7 PX IC50 IP. In kind it is cell-based. On the procedure:
Nav 1.7 In Vitro PX Assay
293 cells stably transfected with human Nav1.7 were recorded in whole cell voltage clamp mode with the PatchXpress automated electrophysiology system (Molecular Devices, LLC, Sunnyvale, Calif.). Compound effects were measured on a partially inactivated state of the sodium channel. Cells were clamped to a holding potential yielding 20 to 50% inactivation. To elicit sodium current, channels were activated by pulsing to −10 mV for 20 msec. […] A single concentration of test compound was applied to cells for a duration of 3 minutes. Peak sodium current was measured at the end of the compound addition period to determine percent inhibition. Three to five cells were tested per concentration, and IC50 curves were fitted to percent inhibition as a function of concentration.
In the case of `COc1cc(C(F)(F)F)ccc1-c1nccc2cc(S(=O)(=O)Nc3cc(Cl)ncn3)ccc12` [Example 422, N-(6-CHLOROPYRIMIDIN-4-YL)-1-(2-METHOXY-4-(TRIFLUOROMETHYL)PHENYL)ISOQUINOLINE-6-SULFONAMIDE], the IC50 amounted to 0.835 µM.

In the case of `COc1cc(-c2cccc(F)c2)c(Cl)cc1-c1nccc2cc(S(=O)(=O)Nc3ncns3)ccc12` [Example 331, 1-(2-CHLORO-3′-FLUORO-5-METHOXY-[1,1′-BIPHENYL]-4-YL)-N-(1,2,4-THIADIAZOL-5-YL)ISOQUINOLINE-6-SULFONAMIDE], the IC50 turned out to be 0.023 µM. As for `COc1cc(C(F)F)c(Cl)cc1-c1nccc2cc(S(=O)(=O)Nc3ccncn3)ccc12` [Example 457, 1-(5-CHLORO-4-(DIFLUOROMETHYL)-2-METHOXYPHENYL)-N-(PYRIMIDIN-4-YL)ISOQUINOLINE-6-SULFONAMIDE], the IC50 was 0.828 µM. Take `Cc1cnc(F)c(-c2nccc3cc(S(=O)(=O)Nc4nccs4)ccc23)c1` [Example 377, 1-(2-FLUORO-5-METHYLPYRIDIN-3-YL)-N-(THIAZOL-2-YL)ISOQUINOLINE-6-SULFONAMIDE]: the IC50 amounted to 24.5 µM. Take `COc1cc(-c2ccc(C#N)cc2)ccc1-c1nccc2cc(S(=O)(=O)Nc3ccncn3)ccc12` [Example 455, 1-(4′-CYANO-3-METHOXY-[1,1′-BIPHENYL]-4-YL)-N-(PYRIMIDIN-4-YL)ISOQUINOLINE-6-SULFONAMIDE]: the IC50 was 0.904 µM. On to `COc1cc(C(F)(F)F)ccc1-c1nccc2cc(S(=O)(=O)Nc3ccc(F)cn3)ccc12` [Example 427, N-(5-FLUOROPYRIDIN-2-YL)-1-(2-METHOXY-4-(TRIFLUOROMETHYL)PHENYL)ISOQUINOLINE-6-SULFONAMIDE], for which the IC50 is 4.42 µM. The value for `COc1cc(-c2ccc(C)o2)ccc1-c1nccc2cc(S(=O)(=O)Nc3ccncn3)ccc12` [Example 461] was 1.78 µM; that for `COC[C@H]1CCCN1c1ncnc2cc(S(=O)(=O)Nc3nccs3)ccc12` [Example 534, (R)-4-(2-(METHOXYMETHYL)PYRROLIDIN-1-YL)-N-(THIAZOL-2-YL)QUINAZOLINE-7-SULFONAMIDE] was 29.3 µM. The figure for `COc1ccccc1-c1n[nH]c(=O)c2cc(S(=O)(=O)Nc3ncns3)ccc12` [Example 508, 1-(2-METHOXYPHENYL)-4-OXO-N-(1,2,4-THIADIAZOL-5-YL)-3,4-DIHYDROPHTHALAZINE-6-SULFONAMIDE] is 1.3 µM; for `CC(C)(O)c1ccccc1-c1nccc2cc(S(=O)(=O)Nc3nccs3)ccc12` [Example 384, 1-(2-(2-HYDROXYPROPAN-2-YL)PHENYL)-N-(THIAZOL-2-YL)ISOQUINOLINE-6-SULFONAMIDE] it is 6.71 µM; for `Cc1ccccc1-c1nccc2cc(S(=O)(=O)Nc3nccs3)ccc12` [Example 178, N-(THIAZOL-2-YL)-1-(O-TOLYL)ISOQUINOLINE-6-SULFONAMIDE] it is 1.85 µM. The figure for `COc1cc(-c2cccnc2C)ccc1-c1nccc2cc(S(=O)(=O)Nc3ccncn3)ccc12` [Example 476, 1-(2-METHOXY-4-(2-METHYLPYRIDIN-3-YL)PHENYL)-N-(PYRIMIDIN-4-YL)ISOQUINOLINE-6-SULFONAMIDE] is 2.89 µM.

Turning to `COc1cc(C(F)(F)F)ccc1-c1nc(=O)[nH]c2cc(S(=O)(=O)Nc3nccs3)ccc12` [Example 543, 4-(2-METHOXY-4-(TRIFLUOROMETHYL)PHENYL)-2-OXO-N-(THIAZOL-2-YL)-1,2-DIHYDROQUINAZOLINE-7-SULFONAMIDE], the IC50 is 4.56 µM. Regarding `COc1cc(C(F)(F)F)ccc1-c1cnnc2cc(S(=O)(=O)Nc3ccncn3)ccc12` [Example 260, 4-(2-METHOXY-4-(TRIFLUOROMETHYL)PHENYL)-N-(PYRIMIDIN-4-YL)CINNOLINE-7-SULFONAMIDE], the IC50 came to 1.27 µM. `COc1cc(F)ccc1-c1ncc(O)c2cc(S(=O)(=O)Nc3nccs3)ccc12` [Example 233, 1-(4-FLUORO-2-METHOXYPHENYL)-4-HYDROXY-N-(THIAZOL-2-YL)ISOQUINOLINE-6-SULFONAMIDE 2,2,2-TRIFLUOROACETATE]: the IC50 is 0.51 µM.

With `COc1cc(C#N)ccc1-c1cncc2cc(S(=O)(=O)Nc3ccncn3)ccc12` [Example 286, 4-(4-CYANO-2-METHOXYPHENYL)-N-(PYRIMIDIN-4-YL)ISOQUINOLINE-7-SULFONAMIDE HYDROCHLORIDE], the IC50 stood at 4.22 µM.

Regarding `O=S(=O)(Nc1nccs1)c1ccc2c(-c3ccc(F)cc3OC3CCOCC3)nccc2c1` [Example 414, 1-(4-FLUORO-2-((TETRAHYDRO-2H-PYRAN-4-YL)OXY)PHENYL)-N-(THIAZOL-2-YL)ISOQUINOLINE-6-SULFONAMIDE], the 50% inhibitory concentration (IC50) stood at 7.11 µM. With `Cc1cc(C#N)ccc1-c1ncnc2cc(S(=O)(=O)Nc3nccs3)ccc12` [Example 542], the IC50 was found to be 5.02 µM. The value for `COc1cc(C(F)(F)F)ccc1-c1ccnc2cc(S(=O)(=O)Nc3nccs3)c(OC)cc12` [Example 327, 6-METHOXY-4-(2-METHOXY-4-(TRIFLUOROMETHYL)PHENYL)-N-(THIAZOL-2-YL)QUINOLINE-7-SULFONAMIDE] was 2.34 µM; that for `COc1cc(C#N)ccc1-c1ccnc2cc(S(=O)(=O)Nc3ccncn3)ccc12` [Example 280, 4-(4-CYANO-2-METHOXYPHENYL)-N-(PYRIMIDIN-4-YL)QUINOLINE-7-SULFONAMIDE] was 4.45 µM; that for `COc1cc(-c2cncc(C)c2)ccc1-c1nccc2cc(S(=O)(=O)Nc3ccncn3)ccc12` [Example 478, 1-(2-METHOXY-4-(5-METHYLPYRIDIN-3-YL)PHENYL)-N-(PYRIMIDIN-4-YL)ISOQUINOLINE-6-SULFONAMIDE] was 3.64 µM.

As for `O=S(=O)(Nc1ncns1)c1ccc2c(N3CCC[C@H]3c3cccnc3)cccc2c1` (single isomer, unassigned) [Example 86], the IC50 amounted to 0.0627 µM. Take `COc1cc(C(F)(F)F)ccc1-c1c[nH]c(=O)c2cc(S(=O)(=O)Nc3nccs3)ccc12` [Example 544, 4-(2-METHOXY-4-(TRIFLUOROMETHYL)PHENYL)-1-OXO-N-(THIAZOL-2-YL)-1,2-DIHYDROISOQUINOLINE-7-SULFONAMIDE]: the IC50 was found to be 0.709 µM. The value for `COc1cc(C(F)(F)F)ccc1-c1nccc2cc(S(=O)(=O)Nc3ncco3)ccc12` [Example 389, 1-(2-METHOXY-4-(TRIFLUOROMETHYL)PHENYL)-N-(OXAZOL-2-YL)ISOQUINOLINE-6-SULFONAMIDE] was 2.79 µM; that for `COc1cc(-c2cncc(F)c2)ccc1-c1nccc2cc(S(=O)(=O)Nc3ccncn3)ccc12` [Example 475, 1-(4-(5-FLUOROPYRIDIN-3-YL)-2-METHOXYPHENYL)-N-(PYRIMIDIN-4-YL)ISOQUINOLINE-6-SULFONAMIDE] was 1.88 µM; that for `COc1cc(Oc2ccccc2F)ccc1-c1nccc2cc(S(=O)(=O)Nc3ccncn3)ccc12` [Example 465, 1-(4-(2-FLUOROPHENOXY)-2-METHOXYPHENYL)-N-(PYRIMIDIN-4-YL)ISOQUINOLINE-6-SULFONAMIDE] was 0.567 µM.

`COc1cc(-c2ccnc(F)c2)ccc1-c1nccc2cc(S(=O)(=O)Nc3ccncn3)ccc12` [Example 474, 1-(4-(2-FLUOROPYRIDIN-4-YL)-2-METHOXYPHENYL)-N-(PYRIMIDIN-4-YL)ISOQUINOLINE-6-SULFONAMIDE]: the IC50 was 2.61 µM. Regarding `Cc1cc(C#N)ccc1-c1ccnc2cc(S(=O)(=O)Nc3ncns3)ccc12` [Example 323], the IC50 is 2.3 µM. The value for `COc1cc(-c2cnc(F)c(C)c2)ccc1-c1nccc2cc(S(=O)(=O)Nc3ccncn3)ccc12` [Example 481, 1-(4-(6-FLUORO-5-METHYLPYRIDIN-3-YL)-2-METHOXYPHENYL)-N-(PYRIMIDIN-4-YL)ISOQUINOLINE-6-SULFONAMIDE] was 0.788 µM.

`COc1cc(Cl)ccc1-c1ncnc2cc(S(=O)(=O)Nc3ccncn3)ccc12` [Example 526, 4-(4-CHLORO-2-METHOXYPHENYL)-N-(PYRIMIDIN-4-YL)QUINAZOLINE-7-SULFONAMIDE]: the IC50 came to 2.3 µM. As for `N#CC(F)Oc1cc(F)ccc1-c1nccc2cc(S(=O)(=O)Nc3nccs3)ccc12` (stereo not shown) [Example 416, 1-(2-(CYANOFLUOROMETHOXY)-4-FLUOROPHENYL)-N-(THIAZOL-2-YL)ISOQUINOLINE-6-SULFONAMIDE], the IC50 is 1.22 µM.

Turning to `COc1ccccc1-c1ccnc2cc(S(=O)(=O)Nc3ccncn3)ccc12` [Example 281, 4-(2-METHOXYPHENYL)-N-(PYRIMIDIN-4-YL)QUINOLINE-7-SULFONAMIDE], the IC50 was determined as 1.93 µM. As to `O=S(=O)(Nc1nccs1)c1ccc2c(-c3ccc(F)cc3C3=CCOC3)nccc2c1` [Example 127, 1-(2-(2,5-DIHYDROFURAN-3-YL)-4-FLUOROPHENYL)-N-(THIAZOL-2-YL)ISOQUINOLINE-6-SULFONAMIDE TRIFLUOROACETATE], the IC50 was determined as 2.22 µM. In the case of `COc1cc(C2(F)COC2)ccc1-c1nc(C)nc2cc(S(=O)(=O)Nc3nccs3)ccc12` [Example 516, 4-(4-(3-FLUOROOXETAN-3-YL)-2-METHOXYPHENYL)-2-METHYL-N-(THIAZOL-2-YL)QUINAZOLINE-7-SULFONAMIDE], the IC50 is 1.05 µM. The figure for `Cc1cc(C#N)ccc1-c1nccc2cc(S(=O)(=O)Nc3ncns3)ccc12` [Example 359] is 2.38 µM; for `COc1ccc(Cl)cc1-c1n[nH]c(=O)c2cc(S(=O)(=O)Nc3ccncn3)ccc12` [Example 504, 1-(5-CHLORO-2-METHOXYPHENYL)-4-OXO-N-(PYRIMIDIN-4-YL)-3,4-DIHYDROPHTHALAZINE-6-SULFONAMIDE] it is 1.59 µM; for `COc1ncc(C(F)(F)F)cc1-c1nccc2cc(S(=O)(=O)Nc3nccs3)ccc12` [Example 409, 1-(2-METHOXY-5-(TRIFLUOROMETHYL)PYRIDIN-3-YL)-N-(THIAZOL-2-YL)ISOQUINOLINE-6-SULFONAMIDE] it is 0.69 µM.

The IC50 is the concentration needed to halve the response being measured.
